The test system of test [1] is human platelet rich plasma (PRP). Briefly: ADP induced platelet aggregation assay. The note with it: Homo sapiens, Platelet, 5 min, read-out: PA IC50 (μM) @ 10 μM ADP, human PRP, 10 μM ADP, AUC at 5 minute.
In test [2] the target is cloned human P2Y1 receptors (Homo sapiens (Human), UniProt P47900). In words: Binding Assay B - Scintillation Proximity Assay (SPA) for P2Y1 binding, [33P] 2MeS-ADP. To be noted: SPA, 0.3 nM [33P] 2MeS-ADP, Cheng-Prusoff; read-out: P2Y1 Ki (nM) using binding assay B. How it is done: Binding Assay B—Scintillation Proximity Assay (SPA) for P2Y1 Binding
A SPA membrane binding assay was used to identify inhibitors of [^33P] […] Reactions were allowed to proceed to completion at room temperature for 1 hour followed by centrifugation of the plate for 5 min. About 40 μL of the aqueous solution was aspirated. Plates were sealed and the [^33P]

Chain of cloned human P2Y1 receptors (P47900 whole entry): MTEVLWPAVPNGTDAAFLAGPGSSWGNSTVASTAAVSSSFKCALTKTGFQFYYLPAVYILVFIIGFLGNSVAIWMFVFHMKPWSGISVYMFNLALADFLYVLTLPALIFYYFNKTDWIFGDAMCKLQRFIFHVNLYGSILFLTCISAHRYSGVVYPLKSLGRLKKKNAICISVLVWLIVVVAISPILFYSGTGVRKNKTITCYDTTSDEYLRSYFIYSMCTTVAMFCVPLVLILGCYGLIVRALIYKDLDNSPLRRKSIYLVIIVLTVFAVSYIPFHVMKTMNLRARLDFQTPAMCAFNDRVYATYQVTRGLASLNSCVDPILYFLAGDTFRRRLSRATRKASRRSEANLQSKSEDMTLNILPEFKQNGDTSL

As usually defined, the IC50 is the concentration needed to halve the response being measured. The Ki is the equilibrium dissociation constant of an inhibitor or competing ligand from its target. For the compound `CC1(C)CN(c2ccccc2NC(=O)Nc2nc3ccc(F)cc3s2)c2c(O)cc(F)c(-c3ccc(C(F)(F)F)nc3)c21` [Example 158, 1-(2-(5-Fluoro-7-hydroxy-3,3-dimethyl-4-(6-(trifluoromethyl)pyridin-3-yl)indolin-1-yl)phenyl)-3-(6-fluorobenzo[d]thiazol-2-yl)urea], the IC50 in test [1] was determined as 0.2 µM. Besides, the Ki in test [2] was 5.7 nM.
As for `CC1(C)CN(c2ccccc2NC(=O)Nc2ccc(OC(F)(F)F)cc2)c2c(O)cc(F)c(-c3ccc(F)cn3)c21` [Example 159, 1-(2-(5-Fluoro-4-(5-fluoropyridin-2-yl)-7-hydroxy-3,3-dimethylindolin-1-yl)phenyl)-3-(4-(trifluoromethoxy)phenyl)urea], the half-inhibitory concentration (IC50) in test [1] is 0.3 µM. In addition, the Ki in test [2] amounted to 7.4 nM.
For the compound `CC(C)(C)c1ncc(-c2c(F)cc(O)c3c2C(C)(C)CN3c2ccccc2NC(=O)Nc2ccc(OC(F)(F)F)cc2)cn1` [Example 160, 1-(2-(4-(2-(tert-Butyl)pyrimidin-5-yl)-5-fluoro-7-hydroxy-3,3-dimethylindolin-1-yl)phenyl)-3-(4-(trifluoromethoxy)phenyl)urea], in test [1], the half-inhibitory concentration (IC50) worked out at 0.09 µM. The inhibition constant Ki in test [2] is 13.1 nM.
`CC1(C)CN(c2ccccc2NC(=O)Nc2ccc(OC(F)(F)F)cc2)c2c(O)cc(F)c(-c3cc(F)nc(F)c3)c21` [Example 161, 1-(2-(4-(2,6-Difluoropyridin-4-yl)-5-fluoro-7-hydroxy-3,3-dimethylindolin-1-yl)phenyl)-3-(4-(trifluoromethoxy)phenyl)urea]: the 50% inhibitory concentration (IC50) in test [1] stood at 0.16 µM. In addition, the inhibition constant (Ki) in test [2] turned out to be 6.6 nM.
For the compound `CC1(C)CN(c2ccccc2NC(=O)Nc2ccc(OC(F)(F)F)cc2)c2c(O)cc(F)c(-c3ccc(Cl)cn3)c21` [Example 162, 1-(2-(4-(5-Chloropyridin-2-yl)-5-fluoro-7-hydroxy-3,3-dimethylindolin-1-yl)phenyl)-3-(4-(trifluoromethoxy)phenyl)urea], the 50% inhibitory concentration (IC50) in test [1] is 0.25 µM. The inhibitory constant (Ki) in test [2] turned out to be 6.4 nM.
As to `CC1(C)CN(c2ccccc2NC(=O)Nc2ccc(OC(F)(F)F)cc2)c2c(O)cc(F)c(-c3cnc(Cl)cn3)c21` [Example 163, 1-(2-(4-(5-Chloropyrazin-2-yl)-5-fluoro-7-hydroxy-3,3-dimethylindolin-1-yl)phenyl)-3-(4-(trifluoromethoxy)phenyl)urea], the half-maximal inhibitory concentration (IC50) in test [1] was determined as 0.26 µM. Moreover, in test [2], the Ki was 43.1 nM.
The matching figures for `CC1(C)CN(c2ccccc2NC(=O)Nc2ccc(OC(F)(F)F)cc2)c2c(O)cc(F)c(-c3ncc(F)cn3)c21` [Example 164, 1-(2-(5-Fluoro-4-(5-fluoropyrimidin-2-yl)-7-hydroxy-3,3-dimethylindolin-1-yl)phenyl)-3-(4-(trifluoromethoxy)phenyl)urea]: 0.95 µM and 10.8 nM.
As to `CC(C)(C)c1ccc(-c2c(F)cc(O)c3c2C(C)(C)CN3c2ccccc2NC(=O)Nc2ccc(OC(F)(F)F)cc2)cn1` [Example 165, 1-(2-(4-(6-(tert-Butyl)pyridin-3-yl)-5-fluoro-7-hydroxy-3,3-dimethylindolin-1-yl)phenyl)-3-(4-(trifluoromethoxy)phenyl)urea], the concentration for half-maximal inhibition (IC50) in test [1] is 0.21 µM. Also, the inhibitory constant (Ki) in test [2] was 26.8 nM.
Consider `CC1(C)CN(c2ccccc2NC(=O)Nc2nc3ccc(F)cc3s2)c2c(O)cc(F)c(-c3ccc(C(F)(F)F)cn3)c21` [Example 168, 1-(2-(5-Fluoro-7-hydroxy-3,3-dimethyl-4-(5-(trifluoromethyl)pyridin-2-yl)indolin-1-yl)phenyl)-3-(6-fluorobenzo[d]thiazol-2-yl)urea], for which the IC50 in test [1] was determined as 0.45 µM. The Ki in test [2] was found to be 29.4 nM.
The matching figures for `CC1(C)CN(c2ccccc2NC(=O)Nc2ccc(OC(F)(F)F)cc2)c2c(O)ccc(-c3nc4cc(F)ccc4s3)c21` [Example 170, 1-(2-(4-(5-Fluorobenzo[d]thiazol-2-yl)-7-hydroxy-3,3-dimethylindolin-1-yl)phenyl)-3-(4-(trifluoromethoxy)phenyl)urea]: 0.25 µM and 14.1 nM.
As to `CC1(C)CN(c2ccccc2NC(=O)Nc2nc3ccc(F)nc3s2)c2c(O)cc(F)c(-c3nc4ccc(F)cc4s3)c21` [Example 178, 1-(2-(5-Fluoro-4-(6-fluorobenzo[d]thiazol-2-yl)-7-hydroxy-3,3-dimethylindolin-1-yl)phenyl)-3-(5-fluorothiazolo[5,4-b]pyridin-2-yl)urea], the half-inhibitory concentration (IC50) in test [1] came out at 0.74 µM. In test [2], the inhibition constant Ki was found to be 17.9 nM.
The matching figures for `COc1ccc2nc(NC(=O)Nc3ccccc3N3CC(C)(C)c4c(-c5nc6ccc(F)cc6s5)c(F)cc(O)c43)sc2c1` [Example 179, 1-(2-(5-Fluoro-4-(6-fluorobenzo[d]thiazol-2-yl)-7-hydroxy-3,3-dimethylindolin-1-yl)phenyl)-3-(6-methoxybenzo[d]thiazol-2-yl)urea]: 0.49 µM and 22.6 nM.
On to `CC1(C)CN(c2ccccc2NC(=O)Nc2csc(C(F)(F)F)n2)c2c(O)cc(F)c(-c3nc4cc(Cl)ccc4s3)c21` [Example 180, 1-(2-(4-(5-Chlorobenzo[d]thiazol-2-yl)-5-fluoro-7-hydroxy-3,3-dimethylindolin-1-yl)phenyl)-3-(2-(trifluoromethyl)thiazol-4-yl)urea], for which the IC50 in test [1] was found to be 0.56 µM. For the same compound, in test [2], the Ki is 28.4 nM.
The matching figures for `CC1(C)CN(c2ccccc2NC(=O)Nc2csc(Cl)n2)c2c(O)cc(F)c(-c3nc4cc(F)ccc4s3)c21` [Example 181, 1-(2-Chlorothiazol-4-yl)-3-(2-(5-fluoro-4-(5-fluorobenzo[d]thiazol-2-yl)-7-hydroxy-3,3-dimethylindolin-1-yl)phenyl)urea]: 0.49 µM and 9.7 nM.
The matching figures for `CC1(C)CN(c2ccccc2NC(=O)Nc2nc3ccc(F)nc3s2)c2c(O)cc(F)c(-c3nc4cc(F)ccc4s3)c21` [Example 182, 1-(2-(5-Fluoro-4-(5-fluorobenzo[d]thiazol-2-yl)-7-hydroxy-3,3-dimethylindolin-1-yl)phenyl)-3-(5-fluorothiazolo[5,4-b]pyridin-2-yl)urea]: 0.51 µM and 15.7 nM.
The matching figures for `Cn1nc(C(F)(F)F)cc1-c1c(F)cc(O)c2c1C(C)(C)CN2c1ccccc1NC(=O)Nc1ccc(OC(F)(F)F)cc1` [Example 183, 1-(2-(5-Fluoro-7-hydroxy-3,3-dimethyl-4-(1-methyl-3-(trifluoromethyl)-1H-pyrazol-5-yl)indolin-1-yl)phenyl)-3-(4-(trifluoromethoxy)phenyl)urea]: 0.21 µM and 11.3 nM.
Turning to `CC(C)Cn1cc(-c2c(F)cc(O)c3c2C(C)(C)CN3c2ccccc2NC(=O)Nc2ccc(OC(F)(F)F)cc2)cn1` [Example 184, 1-(2-(5-Fluoro-7-hydroxy-4-(1-isobutyl-1H-pyrazol-4-yl)-3,3-dimethylindolin-1-yl)phenyl)-3-(4-(trifluoromethoxy)phenyl)urea], in test [1], the 50% inhibitory concentration (IC50) stood at 0.26 µM. Also, in test [2], the Ki was 10.7 nM.
The matching figures for `CC(C)CCn1cc(-c2c(F)cc(O)c3c2C(C)(C)CN3c2ccccc2NC(=O)Nc2ccc(OC(F)(F)F)cc2)cn1` [Example 185, 1-(2-(5-Fluoro-7-hydroxy-4-(1-isopentyl-1H-pyrazol-4-yl)-3,3-dimethylindolin-1-yl)phenyl)-3-(4-(trifluoromethoxy)phenyl)urea]: 0.16 µM and 13.3 nM.

Source of the values: US9540323B2 (BRISTOL-MYERS SQUIBB COMPANY, priority 2012, dated 2017).
